Experimental data reported in US8258116B2, “Combination therapy for the treatment of HCV infection” (Vertex Pharmaceuticals Incorporated, priority 2007, dated 2012).
Where two headings read alike, the source gives them in different places.

Tests used:
[1] = test system: HCV replicon Wild Type (mADE); test: 2-Day HCV Replicon IC50 Assay, wild type replicon; format: cell-based; conditions: for IC50: Hepatitis C virus; for Fold Change: ratio of IC50 to Wild type IC50 for the same inhibitor
Method: (§1) Huh-7 cells were propagated in Dulbecco's modified Eagle's medium (DMEM, JRH Biosciences, Lenexa, Kans.) supplemented with 10% heat-inactivated FBS (fetal bovine serum), 2 mM L-glutamine, and nonessential amino acids (JRH). The cells were transfected with an in vitro transcribed HCV replicon RNA identical to replicon 1377neo/NS3-3′/wt as described by Lohmann et al. (1999). Stable cell clones were selected and maintained in the presence of 250 μg/mL G418 (Invitrogen, Carlsbad, Calif.). […] The HCV NS3 protease variant replicons were constructed in the background of the mADE wild-type replicon as described previously [Chao Lin et al., “In Vitro Resistance Studies of Hepatitis C Virus Serine Protease Inhibitors, VX-950 and BILN 2061: Structural Analysis Indicates Different Resistance Mechanisms,” Journal of Biological Chemistry, 279(17); pp. 17508-17514 (2004)]. The replicon cells were propagated in DMEM supplemented with 10% FBS, 2 mM L-glutamine, nonessential amino acids, and 250 μg/mL G418. The cells were split twice per week in fresh media upon reaching confluence. There are approximately 200-300 copies of HCV RNA per 24-2 replicon cell.
(§2) HCV replicon RNA from cells was measured using the Quantigene Discover XL kit (Panomics Inc., Fremont Calif.) as per the manufacturer's instructions. Briefly, compound-treated replicon cells were lysed and immobilized on to capture plates using HCV specific oligonucleotides (designed based on the 5′ UTR region of HCV 1b genome sequence AJ238799 in the GenBank database) over night and the relative amounts of captured RNA was measured using oligonucleotide probe sets as per the manufacturer's instructions.
(§3) On the day prior to the assay, 10,000 replicon cells were plated per well of a 96-well plate and allowed to attach and grow overnight in DMEM (Invitrogen, Carlsbad, Calif.) supplemented with 10% heat-inactivated FBS (JRH Biosciences, Lenexa, Kans.), 2 mM L-glutamine (Invitrogen), nonessential amino acids (Invitrogen) and 250 μg/ml G418 (Invitrogen). Next day, the medium was removed and antiviral agents that were serially diluted in DMEM containing 2% FBS and 0.5% DMSO (Sigma Chemical Co., St. Louis, Mo.) without G418, was added. The replicon cells were incubated with the antiviral agents for 48 h. HCV replicon RNA from cells was measured using the Quantigene Discover XL kit (Panomics Inc., Fremont Calif.) as per the manufacturer's instructions. Briefly, compound-treated replicon cells were lysed and immobilized onto capture plates using HCV specific oligonucleotides overnight and the relative amounts of captured RNA was measured using oligonucleotide probe sets as per the manufacturer's instructions. Unless indicated otherwise, each data point represents the average of three replicates. The IC50 is the concentration of the compound at which the HCV replicon RNA level in cells is reduced by 50% as compared to the untreated replicon cell controls. To monitor the effect of compounds on cell proliferation or cell viability, replicon cells were treated with serially diluted compounds for 48 h, after which cell viability was determined using a CellTiter Glo assay (Promega, Madison, Wis.). Each CC50 is derived from at least two replicates and is the concentration of the compound at which the number of viable cells is reduced by 50% as compared to untreated cell controls. The IC50 and CC50 was determined using 4-parameter curve fitting in the SoftMax Pro program (Molecular Devices, Sunnyvale, Calif.).
(§4) The sensitivity of NS3 protease variants to ribavirin and interferon was assessed in a 2-Day HCV Replicon IC50 Assay.

[2] = test system: HCV NS3 protease variant replicon A156T; test: 2-Day HCV Replicon IC50 Assay, A156T; format: cell-based; conditions: for Fold Change: A156T, ratio of mutant IC50 to Wild type IC50 for the same inhibitor; for IC50: Hepatitis C virus, read-out: Avg. IC50 ± STDEV
Method: as §1, §2, §3, §4

[3] = test system: HCV replicon cells (wild-type clone 24-2, Huh-7); test: 2-day Replicon assay with bDNA quantitation, checkerboard combination (Bliss independence / MacSynergy); format: cell-based; conditions: Hepatitis C virus, Huh-7, 48 h, polymerase inhibitor in the checkerboard experiment with VX-950, read-out: Polymerase Inhibitor IC50
Method: Huh-7 cells were propagated in Dulbecco's modified Eagle's medium (DMEM, JRH Biosciences, Lenexa, Kans.) supplemented with 10% heat-inactivated FBS (fetal bovine serum), 2 mM L-glutamine, and nonessential amino acids (JRH). The cells were transfected with an in vitro transcribed HCV replicon RNA identical to replicon 1377neo/NS3-3′/wt as described by Lohmann et al. (1999). Stable cell clones were selected and maintained in the presence of 250 μg/mL G418 (Invitrogen, Carlsbad, Calif.). One of the clones, 24-2, was used as the wild-type in the subsequent HCV replicon assays for combination studies. The HCV NS3 protease variant replicons were constructed in the background of the mADE wild-type replicon as described previously [Chao Lin et al., “In Vitro Resistance Studies of Hepatitis C Virus Serine Protease Inhibitors, VX-950 and BILN 2061: Structural Analysis Indicates Different Resistance Mechanisms,” Journal of Biological Chemistry, 279(17); pp. 17508-17514 (2004)]. The replicon cells were propagated in DMEM supplemented with 10% FBS, 2 mM L-glutamine, nonessential amino acids, and 250 μg/mL G418. The cells were split twice per week in fresh media upon reaching confluence. There are approximately 200-300 copies of HCV RNA per 24-2 replicon cell.
as §2, §3
The effects of drug-drug combinations were evaluated using the Bliss independence model [W. R. Greco et al., “The search for synergy: a critical review from a response surface perspective,” Pharmacol. Rev., 47, pp. 331-385 (1995)]. The experimental data were analyzed by using MacSynergy, a three-dimensional analytical method developed by Prichard and Shipman [M. N. Prichard and C. […]

[4] = test system: HCV NS3 protease variant replicon V36A; test: microbe, parasite or virus in culture; format: cell-based; conditions: for IC50: Hepatitis C virus; for Fold Change: V36A, ratio of mutant IC50 to Wild type IC50 for the same inhibitor
Method: as §1, §2, §3, §4

[5] = test system: HCV NS3 protease variant replicon V36M; test: microbe, parasite or virus in culture; format: cell-based; conditions: for IC50: Hepatitis C virus; for Fold Change: V36M, ratio of mutant IC50 to Wild type IC50 for the same inhibitor
Method: as §1, §2, §3, §4

[6] = test system: HCV NS3 protease variant replicon R155K; test: microbe, parasite or virus in culture; format: cell-based; conditions: for IC50: Hepatitis C virus; for Fold Change: R155K, ratio of mutant IC50 to Wild type IC50 for the same inhibitor
Method: as §1, §2, §3, §4

[7] = test system: HCV NS3 protease variant replicon T54A; test: microbe, parasite or virus in culture; format: cell-based; conditions: for IC50: Hepatitis C virus; for Fold Change: T54A, ratio of mutant IC50 to Wild type IC50 for the same inhibitor
Method: as §1, §2, §3, §4

[8] = test system: HCV NS3 protease variant replicon V36M+R155K; test: microbe, parasite or virus in culture; format: cell-based; conditions: for Fold Change: V36M-R155K, ratio of mutant IC50 to Wild type IC50 for the same inhibitor
Method: as §1, §2, §3, §4

[9] = test system: HCV NS3 protease variant replicon A156V; test: 2-Day HCV Replicon IC50 Assay, A156V; format: cell-based; conditions: for Fold Change: A156V, ratio of mutant IC50 to Wild type IC50 for the same inhibitor; for IC50: Hepatitis C virus, read-out: Avg. IC50 ± STDEV
Method: as §1, §2, §3, §4

[10] = test system: HCV NS3 protease variant replicon A156T; conditions: A156T replicon versus wild-type (Lin et al., 2005); cited from earlier work
[11] = test system: HCV NS3 protease variant replicon A156V; conditions: A156V replicon versus wild-type (Lin et al., 2005); cited from earlier work
[12] = test system: HCV NS3 protease variant replicon V36M-R155T; test: microbe, parasite or virus in culture; format: cell-based
Method: as §1, §2, §3, §4

[13] = test system: HCV NS3 protease variant replicon V36A-R155K; test: microbe, parasite or virus in culture; format: cell-based
Method: as §1, §2, §3, §4

[14] = test system: HCV NS3 protease variant replicon V36A-R155T; test: microbe, parasite or virus in culture; format: cell-based
Method: as §1, §2, §3, §4

[15] = test system: HCV NS3 protease variant replicon R155M; test: microbe, parasite or virus in culture; format: cell-based
Method: as §1, §2, §3, §4

[16] = test system: HCV NS3 protease variant replicon R155T; test: microbe, parasite or virus in culture; format: cell-based
Method: as §1, §2, §3, §4

[17] = Table 8, Wild Type replicon, read-out: Avg. IC50 ± STDEV
[18] = Hepatitis C virus, read-out: Avg. IC50

| Compound | IC50 [1, 17] | Fold Change ([1]; Wild Type replicon) | Fold Change [2] | IC50 [2] | IC50 [3] | IC50 ([4]; read-out: Avg. IC50 ± STDEV) | Fold Change [4] | IC50 ([5]; read-out: Avg. IC50 ± STDEV) | Fold Change [5] | IC50 ([6]; read-out: Avg. IC50 ± STDEV) | Fold Change [6] | IC50 ([7]; read-out: Avg. IC50 ± STDEV) | Fold Change [7] | Fold Change [8] | Fold Change [9] | IC50 [9] | also measured |
| --- | --- | --- | --- | --- | --- | --- | --- | --- | --- | --- | --- | --- | --- | --- | --- | --- | --- |
| CCN(CC)C1CCN(C(=O)Cn2c(-c3ccc(Cl)cc3)c(C3CCCCC3)c3ccc(C(=O)O)cc32)CC1 [Formula III] | 0.313 ± 0.032 µM | 1.0 | 1.0 | 0.306 ± 0.01 µM | 0.7 µM | 0.369 ± 0.066 µM | 1.2 | 0.227 ± 0.064 µM | 0.7 | 0.39 ± 0.065 µM | 1.2 | 0.337 ± 0.045 µM | 1.1 | 1.3 | 0.9 | 0.297 ± 0.066 µM | – |
| O=c1c(C2=NS(=O)(=O)c3ccccc3N2)c(O)c2ccccc2n1NC1CCC1 [Formula II] | 0.347 ± 0.108 µM | 1.0 | 0.9 | 0.326 ± 0.003 µM | 1.04 µM | 0.571 ± 0.093 µM | 1.6 | 0.36 ± 0.164 µM | 1.0 | 0.45 ± 0.023 µM | 1.3 | 0.564 ± 0.111 µM | 1.6 | 1.7 | 0.8 | 0.264 ± 0.045 µM | – |
| C[C@@]1(O)[C@H](O)[C@@H](CO)O[C@H]1n1ccc(N)nc1=O [Formula I] | 1.34 ± 0.473 µM | 1.0 | 0.9 | 1.27 ± 0.185 µM | 7.21 µM | 2.15 ± 0.874 µM | 1.6 | 1.59 ± 0.361 µM | 1.2 | 2.37 ± 0.678 µM | 1.8 | 1.98 ± 0.388 µM | 1.5 | 2.0 | 1.0 | 1.31 ± 0.216 µM | – |
| NC(=O)c1ncn([C@@H]2O[C@H](CO)[C@@H](O)[C@H]2O)n1 [Ribavirin, 1-beta-D-ribofuranosyl-1H-1,2,4-triazole-3-carboxamide, reference compound] | – | 1.0 | – | – | – | – | 0.7 | – | 0.6 | – | 0.6 | – | 0.4 | 0.7 | – | – | IC50 ([1]; Ribavirin, Wild Type (mADE) replicon, read-out: Avg. IC50): 57.8 ± 17.6 µM; sensitivity of replicon [10]: comparable to the wild-type; sensitivity of replicon [11]: comparable to the wild-type; IC50 [12, 18]: 36.4 ± 1.3 µM; Fold Change ([12]; V36M-R155T, ratio of mutant IC50 to Wild type IC50 for the same inhibitor): 0.6; IC50 ([4]; read-out: Avg. IC50): 43.1 ± 21.3 µM; IC50 ([5]; read-out: Avg. IC50): 32.9 ± 17.8 µM; IC50 [13, 18]: 35.8 ± 2.2 µM; Fold Change ([13]; V36A-R155K, ratio of mutant IC50 to Wild type IC50 for the same inhibitor): 0.6; IC50 [14, 18]: 41.7 ± 21.6 µM; Fold Change ([14]; V36A-R155T, ratio of mutant IC50 to Wild type IC50 for the same inhibitor): 0.7; IC50 ([6]; read-out: Avg. IC50): 37.2 ± 17 µM; IC50 [15, 18]: 38.9 ± 4.7 µM; Fold Change ([15]; R155M, ratio of mutant IC50 to Wild type IC50 for the same inhibitor): 0.7; IC50 [16, 18]: 32.4 ± 17.7 µM; Fold Change ([16]; R155T, ratio of mutant IC50 to Wild type IC50 for the same inhibitor): 0.6; IC50 ([7]; read-out: Avg. IC50): 21.7 ± 11.1 µM; IC50 [8, 18]: 40.6 ± 6.1 µM |
